Test results as given in US4119724A, “Fungicidal compositions containing phosphorous acid and derivatives thereof” (Pepro, priority 1973, dated 1978).

What was measured:
[1] = test system: Plasmopara viticola; test: Systemic test by root absorption on vine mildew; assay type: in vivo; details: 0.5 g/l, absorbed by the roots, assessed after about 9 days
[2] = Solubility in water; assay type: physicochemical
[3] = test system: Plasmopara viticola; test: In vivo test on vine plants, treatment after contamination; details: 1 g/l, inspected 9 days after contamination
[4] = test system: Plasmopara viticola; test: In vivo test on vine plants, preventive treatment; details: 0.5 g/l, leaves sprayed 48 hours before contamination, inspected 9 days after infestation
[5] = test system: Plasmopara viticola; test: Open-air test on vine stocks; assay type: in vivo; details: 2 g/l
Description: Groups of vine stocks (Gamay variety) are treated on the 27th June, 4th, 11th and 18th July, 1st and 7th August, with a spray of wettable powder containing 50% of an active material, namely compound 13 and manganese ethylene-1,2-bis-dithiocarbamate or manebe.
It should be noted that, in August and September, the mildew Plasmopara viticola was extremely virulent on account of heavy rainfall. For a uniform dose of 2 g/l, the results are expressed as percentage protection in relation to a contaminated but untreated control.

[6] = test system: Rhizoctonia solani; test: In vitro test on mycelian growth (Agar Plate dilution), Rhizoctonia; assay type: cell-based; details: 0.25 g/l, 4 days at 20° C
Description: (§1) In vitro Test on Mycelian Growth
(§2) The compounds according to the invention are studied for their effect on the mycelian growth of the following fungi:
Rhizoctonia solani, responsible for neck canker
(§3) The "Agar Plate dilution" method is used for each test. A mixture of gelose and an acetone solution or a wettable powder containing the material to be tested in a concentration of 0.25 g/l is poured into a Petri dish at a temperature of approximately 50° C.
(§4) The gelose-containing mixture is then allowed to solidify, after which mycelian culture discs of the fungus are placed on it.
(§5) After 4 days at 20° C., the surface area of the inhibition zone observed is evaluated and expressed as a percentage of the inoculated surface area.

[7] = test system: Botrytis cinerea; test: In vitro test on mycelian growth (Agar Plate dilution), Botrytis; assay type: cell-based; details: 0.25 g/l, 4 days at 20° C
Description: as §1, §2
Botrytis cinerea, responsible for grey rot
as §3, §4, §5

[8] = test system: Piricularia oryzae; assay type: cell-based; details: 0.25 g/l, 4 days at 20° C
[9] = test system: Phytophtora cinnamomi; test: Avocado test; assay type: in vivo; details: soil sprayed with 3 g/l solution, after 20 days
Description: Avocado seedlings (variety Persea indica) are planted in a soil infested with Phytophtora cinnamomi, after which the soil is sprayed with a solution containing 3 g/l of ammonium phosphite. Some seedlings are left untreated as controls. Under these conditions, it is found after 20 days that the roots of the controls are completely dead, whilst 90% of the treated seedlings are healthy.

[10] = test system: Phytophtora parasitica; test: Pineapple test; assay type: in vivo; details: 0.5 g/l spray 48 hours after contamination, after 30 days
Description: Pineapple seedlings are contaminated with Phytophtora parasitica and then treated after 48 hours by spraying with a solution containing 0.5 g/l of calcium phosphite.

[11] = test system: Pythium de Baryanum; test: In vitro test on mycelian growth (Agar Plate dilution), Pythium; assay type: cell-based; details: 0.25 g/l, 4 days at 20° C
Description: as §1, §2, §3, §4, §5

[12] = inspection date 2/10 (approx. 2 months after last treatment)
[13] = inspection date 3/9 (approx. 1 month after last treatment)
[14] = inspection date 20/10 (approx. 2.5 months after last treatment)

Row | Compound | protection by root absorption (systemic) [1] | stop of the development of mildew (treatment after contamination) [3] | protection (preventive treatment) [4] | also measured
1 | Nc1ccccc1 [Compound 22] | total protection | completely stop the development of mildew | good protection | solubility in water [2]: insoluble
2 | trivalent iron phosphite [Compound 15] |  |  | good protection | 
3 | neutral copper(II)phosphite [Compound 13] | good protection |  | total protection | percentage protection in relation to contaminated untreated control [5, 12]: 66%; percentage protection in relation to contaminated untreated control [5, 13]: 94%; percentage protection in relation to contaminated untreated control [5, 14]: 50%
4 | CC(C)c1cccc(N)c1 [Compound 27] |  |  | good protection | solubility in water [2]: insoluble
5 | neutral nickel (II)phosphite [Compound 14] |  | completely stop the development of mildew | total protection | inhibition of mycelian growth (inhibition zone as percentage of the inoculated surface area) [6]: 78%; inhibition of mycelian growth (inhibition zone as percentage of the inoculated surface area) [7]: 48%; inhibition of mycelian growth (inhibition zone as percentage of the inoculated surface area) [8]: 59%
6 | C1COCCN1 [Compound 25] | total protection | completely stop the development of mildew | good protection | solubility in water [2]: insoluble
7 | O=[PH]([O-])[O-].O=[PH]([O-])[O-].O=[PH]([O-])[O-].[Al+3].[Al+3] [Compound 19, neutral aluminium phosphite] | total protection |  | total protection | 
8 | O=[PH]([O-])[O-].[Ca+2] [Compound 10, neutral calcium phosphite] | good protection |  | total protection | 
9 | N.N.O.O=[P+](O)O [ammonium phosphite] |  |  |  | treated seedlings healthy [9]: 90%
10 | calcium phosphite |  |  |  | inhibition of the fungus in treated seedlings [10]: completely inhibited
11 | O=[PH]([O-])[O-].[Ba+2] [Compound 12, neutral barium phosphite] | total protection |  | total protection | 
12 | CC(C)c1ccc(N)cc1 [Compound 26] |  | completely stop the development of mildew | good protection | solubility in water [2]: insoluble
13 | O=[PH]([O-])[O-].[Zn+2] [Compound 17, neutral zinc(II)phosphite] | total protection | completely stop the development of mildew | total protection | 
14 | manganous phosphite [Compound 16] |  | completely stop the development of mildew | total protection | 
15 | cuprous phosphite [Compound 20] |  |  | total protection | 
16 | NC1CCCCC1 [Compound 23] | good protection |  |  | solubility in water [2]: insoluble
17 | O=[PH]([O-])[O-].[Mg+2] [Compound 18, neutral magnesium phosphite] |  |  | good protection | 
18 | O=[PH](O)O.c1c[nH]cn1 [Compound 21, acid phosphite of 1,3-imidazole] | total protection | completely stop the development of mildew | good protection | 
19 | S=C([S-])NCCNC(=S)[S-].[Mn+2] [Manebe, manganese ethylene-1,2-bis-dithiocarbamate, reference compound] |  |  |  | percentage protection in relation to contaminated untreated control [5, 12]: 62%; percentage protection in relation to contaminated untreated control [5, 13]: 96%; percentage protection in relation to contaminated untreated control [5, 14]: 15%
20 | NCCO.O=[PH](O)O [Compound 8, acid monoethanolamine phosphite] |  |  |  | inhibition of mycelian growth (inhibition zone as percentage of the inoculated surface area) [6]: 60%; inhibition of mycelian growth (inhibition zone as percentage of the inoculated surface area) [11]: 51%
